Consider 19 compounds from patent US8143262B2, “7-(3′,4′-Dialkoxyphenyl)[1,2,4]-triazolo[1,5-A]pyrimidine compounds, process for preparing thereof, and pharmaceutical composition for treating or preventing asthma, chronic obstructive pulmonary disease, arthritis, atopic dermatitis, tumor and degenerative brain diseases comprising the same” (Korea Research Institute of Chemical Technology, priority 2007, dated 2012).

Each structure is given as a SMILES string.

The target in one data set is T1, Human PDE-4d (Homo sapiens, UniProt Q08499).
T1 construct: The catalytic domain of PDE4d was cloned to pGEX4T3 (APBiotech) as GST fusion expression vector; GST (N); made in house; host or cells: E. coli BL21, DE3
T1 sequence (Q08499 386-715 limits assumed): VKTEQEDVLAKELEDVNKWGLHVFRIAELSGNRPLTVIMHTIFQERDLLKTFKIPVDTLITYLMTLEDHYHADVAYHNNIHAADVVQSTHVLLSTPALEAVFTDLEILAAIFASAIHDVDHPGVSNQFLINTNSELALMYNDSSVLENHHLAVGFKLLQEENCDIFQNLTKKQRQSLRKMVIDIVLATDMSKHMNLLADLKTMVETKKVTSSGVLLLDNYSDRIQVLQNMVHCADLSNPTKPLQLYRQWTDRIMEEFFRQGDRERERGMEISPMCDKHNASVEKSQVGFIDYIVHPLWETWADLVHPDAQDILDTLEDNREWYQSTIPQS
As to the kind of experiment: Inhibition of PDE-4 activity ([3H]cAMP hydrolysis, recombinant catalytic domain). The format is biochemical. To be noted: for IC50: PDE4d 1 nM, cAMP 250 nM, 34° C., 45 minutes, read-out: IC50 against PDE-4 enzyme; for activity on inhibiting PDE-4 (in words): comment on Table 2. The procedure: Experiment of inhibiting PDE-4 activity was carried out by modifying the method of Loughney (Loughney et al., Journal of Biological Chemistry, 1996, 271(2), 796-806). Human PDE-4d prepared by means of gene recombination technology was used as PDE-4d
The catalytic domain of PDE4d was cloned to pGEX4T3 (APBiotech) as GST fusion expression vector, and then PDE4d gene was transformed to E. coli BL21, DE3. The strain was cultured at 37° C. in LB medium, and when OD reached about 0.3˜0.5, the temperature was lowered to 18° C. to induce expression of PDE4d by using 0.5 mM IPTG. After 15 hours from induction of the expression, cells with PDE4d expressed were recovered. The cells were suspended in a buffer solution (50 mM Tris, pH 8.0, 0.4M NaCl, 5 mM DTT), and crushed, centrifuged and purified. The columns used for the purification were Q-cephalose (APBiotech), Glutanione-cephalose (APBiotech) and Superdex200 gel permeation chromatography (APBiotech), in this order.
In order to measure the ability of individual compound to inhibit PDE4d activity, PDE4d 1 nM and cAMP (Sigma) 250 nM as substrate were added to the reaction buffer (50 mM Tris-HCl (pH 7.5) and 4 mM MgCl2), and individual compound obtained from Example 1 was added in a concentration from 1 to 50 μM thereto, and the mixture was reacted at 34° C. for 45 minutes. Total reaction solution was 60 μl. As to cAMP, a mixture with the ratio of [^3H]cAMP (Amersham, 1 μCi/μl) to cAMP (hot:cold, that is, isotope:non-isotope) being 1:200 was used. Then, the reaction was quenched by heating at 95° C. for 2 minutes. After cooling the mixture for 3 minutes, 1 mg/ml of Snake Venome (Sigma V0376) (30 μl) was added thereto. After reacting at 34° C. for 30 minutes, 30 μl of the reaction mixture was added to 250 μl of DOWEX 1×2-100 ion exchange resin (Aldrich, previously mixed with distilled water in a ratio of 1:1.6) by portions, and the mixture was vigorously stirred for 2 minutes. After settling the resin down, the supernatant (130 μl) was added to 2 ml of scintillation cocktail (Packard), and the mixture was thoroughly mixed, and then measured by using beta-counter. With respect to the enzyme activity of control group (experiment carried out without adding compound of Chemical Formula (1)), the concentration of each test compound to inhibit 50% of enzyme activity was determined as IC50.

Data set [1] concerns OVA-sensitized C57BL/6J mice. As to the kind of experiment: Airway hyper-responsiveness (Penh, whole body plethysmography) after methacholine in OVA-sensitized mice. It counts as in vivo, mouse. To be noted: oral, 100 mg/kg; versus Roflumilast 100 mg/kg oral. The procedure: (§1) For animal test in vivo, 8-9 week old male C57BL/6J mice having body weight of 20-25 g were used as the test animal. For sensitization and challenge of airway and lung by ovalbumin (OVA), OVA mixed with Al(OH)3 was administered intraperitoneally to cause first sensitization, and second sensitization after 10 days from the first sensitization. After 6 days from the second sensitization, the animals were inhaled with 5% OVA via nebulizer for 3 days. Administration of medicine to the sensitized mice was carried out intraorally (po), three times one hour before every inhalation of OVA. To the control group, 0.5% CMC was administered.
The analysis of airway hyper-responsiveness (AHR) was carried out by using a whole body plethysmographer with a living animal.
After 48 hours from inhalation of OVA, the animal was inhaled with methacholine (Mch) by means of nebulizer. Responsiveness of airway due to Mch was evaluated by enhanced pause (Penh) value on capability of respiration through airway by means of whole body plethysmography, and compared with control medicine.

The subject of data set [2] is OVA-sensitized C57BL/6J mice. Kind of data set: Eosinophil peroxidase activity (EPO activity) in bronchoalveolar washing of OVA-sensitized mice. It counts as in vivo, mouse. To be noted: oral, 5, 50, 100 and 300 mg/kg. The method, then: as §1
In order to observe cell activity and cell constitution in the washing solution of mouse bronchus alveolus, the animal was inhaled with OVA. After 62 hours, the mouse was anesthetized and the cervicothoracic region was open. A tube containing 0.8 ml of PBS was inserted to the bronchus, and PBS was injected. After massaging the chest for about 30 seconds, cell suspension was obtained from the lung. The cells obtained were centrifuged with 400×g. […] For the measurement of EPO activity, the cell suspension ([…]) was reacted with 0.1 mM OPD, 0.05 M Tris-HCl (pH 8.0), Triton X-100 and 1 mM H2 O2, and then absorbance at 492 nm was measured.

The next data set concerns ferrets. Kind of data set: Test of side-effect related to emesis in ferrets. To be noted: ferret, 7 mg/kg. The format is in vivo. The method, then: Male ferrets having the body weight of about 1.5˜2 kg, purchased from Marshal, were classified into the groups: control, yohimbine, #102-500 mg/kg and #102-1000 mg/kg treated groups. For three animals in each group, the medicine dissolved in 0.5% CMC at a concentration of 500 and 1000 mg/kg was orally administered. During 3 hours after then, the number of vomiting for each animal, and the number of animals showing salivation and diarrhea were measured by visual observation.

A further data set deals with PDE-4. To be noted: background art; read-out: IC50 of inhibiting PDE-4; cited from earlier work.

As for `[O-][n+]1cccc(-c2nc3nccc(-c4ccc(OC(F)F)c(OCC5CC5)c4)n3n2)c1` [Compound 102, 3-[7-{3-(cyclopropylmethoxy)-4-(difluoromethoxy)phenyl}-[1,2,4]triazolo[1,5-a]pyrimidine-2-yl]-pyridine-N-oxide], the IC50 (as a rule, the concentration needed to halve the response being measured) at Human PDE-4d turned out to be 0.074 µM. Besides, in data set [1], the “effect of treating asthma: degree of airway contraction by enhanced pause (Penh) value” is on record as “far superior effect of treating asthma to the control compound, Roflumilast”. Besides, the “eosinophil peroxidase activity (EPO activity)” value in data set [2] is on record as “excellent effect”.

In the case of `Cc1ccc(-c2nc3nccc(-c4ccc(OC(F)F)c(OCC5CC5)c4)n3n2)c(C)c1` [Compound 136, 7-[3-(Cyclopropylmethoxy)-4-(difluoromethoxy)phenyl]-2-(2,4-dimethylphenyl)-[1,2,4]triazolo[1,5-a]pyrimidine], the IC50 on Human PDE-4d came to 0.06 µM.

Take `CSc1ccc(-c2nc3nccc(-c4ccc(OC(F)F)c(OCC5CC5)c4)n3n2)cc1` [Compound 140, 7-[3-(Cyclopropylmethoxy)-4-(difluoromethoxy)phenyl]-2-(4-methylthiophenyl)-[1,2,4]triazolo[1,5-a]pyrimidine]: at Human PDE-4d, the IC50 worked out at 0.035 µM.

On to `FC(F)Oc1ccc(-c2ccnc3nc(-c4ccc(C(F)(F)F)cc4)nn23)cc1OCC1CC1` [Compound 125, 7-[3-(Cyclopropylmethoxy)-4-(difluoromethoxy)phenyl]-2-(4-trifluoromethylphenyl)-[1,2,4]triazolo[1,5-a]pyrimidine], for which the IC50 at Human PDE-4d turned out to be 0.19 µM.

With `FC(F)Oc1ccc(-c2ccnc3nc(-c4cccc(I)c4)nn23)cc1OCC1CC1` [Compound 126, 7-[3-(Cyclopropylmethoxy)-4-(difluoromethoxy)phenyl]-2-(3-iodophenyl)-[1,2,4]triazolo[1,5-a]pyrimidine], on Human PDE-4d, the IC50 is 0.005 µM and the “activity on inhibiting PDE-4 (in words)” value is “most excellent activity”.

As for `N#Cc1cccc(-c2nc3nccc(-c4ccc(OC(F)F)c(OC(F)F)c4)n3n2)c1` [Compound 122, 7-(3,4-Bis-difluoromethoxyphenyl)-2-(3-cyanophenyl)-[1,2,4]triazolo[1,5-a]pyrimidine], on Human PDE-4d, the IC50 was determined as 0.047 µM.

Take `FC(F)Oc1ccc(-c2ccnc3nc(-c4cccnc4)nn23)cc1OCC1CC1` [Compound 101, 7-[3-(cyclopropylmethoxy)-4-(difluoromethoxy)phenyl]-2-pyridin-3-yl-[1,2,4]triazolo[1,5-a]pyrimidine]: the IC50 on Human PDE-4d was 0.018 µM.

For the compound `Cc1cccc(-c2nc3nccc(-c4ccc(OC(F)F)c(OCC5CC5)c4)n3n2)c1` [Compound 132, 7-[3-(Cyclopropylmethoxy)-4-(difluromethoxy)phenyl]-2-m-tolyl-[1,2,4]triazolo[1,5-a]pyrimidine], on Human PDE-4d, the IC50 was determined as 0.03 µM.

As to `FC(F)Oc1ccc(-c2ccnc3nc(-c4cccc(Cl)c4)nn23)cc1OCC1CC1` [Compound 120, 2-(3-Chlorophenyl)-7-[3-(cyclopropylmethoxy)-4-(difluoromethoxy)phenyl]-[1,2,4]triazolo[1,5-a]pyrimidine], the IC50 on Human PDE-4d was found to be 0.04 µM.

`FC(F)Oc1ccc(-c2ccnc3nc(-c4cccnc4)nn23)cc1OCC1CC1` [Compound 112, 3-[7-{3-(cyclopropylmethoxy)-4-(difluoromethoxy)phenyl}-[1,2,4]triazolo[1,5-a]pyrimidin-2-yl]-pyridinium chloride]: the 50% inhibitory concentration (IC50) on Human PDE-4d was 0.033 µM.

`NC(=O)c1ccc(-c2nc3nccc(-c4ccc(OC(F)F)c(OCC5CC5)c4)n3n2)cn1` [Compound 139, 5-[7-{3-(cyclopropylmethoxy)-4-(difluoromethoxy)phenyl}-[1,2,4]triazolo[1,5-a]pyrimidin-2-yl]pyridine-2-carboxamide]: the IC50 at Human PDE-4d worked out at 0.046 µM.

Take `Cc1cc(C)cc(-c2nc3nccc(-c4ccc(OC(F)F)c(OCC5CC5)c4)n3n2)c1` [Compound 133, 7-[3-(Cyclopropylmethoxy)-4-(difluoromethoxy)phenyl]-2-(3,5-dimethylphenyl)-[1,2,4]triazolo[1,5-a]pyrimidine]: the IC50 at Human PDE-4d was determined as 0.042 µM.

In the case of `FC(F)Oc1ccc(-c2ccnc3nc(-c4ccncc4)nn23)cc1OCC1CC1` [Compound 103, 7-[3-(Cyclopropylmethoxy)-4-(difluoromethoxy)phenyl]-2-pyridin-4-yl-[1,2,4]triazolo[1,5-a]pyrimidine], the IC50 on Human PDE-4d was found to be 0.079 µM.

Consider `COC(=O)[C@@H]1[C@H]2C[C@H]3c4[nH]c5ccccc5c4CCN3C[C@@H]2CC[C@@H]1O` [yohimbine], for which the “animals showing salivation and diarrhea” value in the data set with ferrets came out at 66%. Besides, the “vomiting symptoms (number of vomiting per animal)” value in the data set with ferrets (observed in all ferrets used) is “average twice”.

With `O=C(O)c1ccc(-c2nc3nccc(-c4ccc(OC(F)F)c(OCC5CC5)c4)n3n2)cn1` [Compound 137, 5-[7-{3-(cyclopropylmethoxy)-4-(difluoromethoxy)phenyl}-[1,2,4]triazolo[1,5-a]pyrimidin-2-yl]pyridine-2-carboxylic acid], the IC50 on Human PDE-4d was 0.2 µM.

For the compound `O=C(Nc1c(Cl)cncc1Cl)c1ccc(OC(F)F)c(OCC2CC2)c1` [Roflumilast], the IC50 in the data set on PDE-4 is 0.0008 µM.

In the case of `Nc1cccc(-c2nc3nccc(-c4ccc(OC(F)F)c(OCC5CC5)c4)n3n2)c1` [Compound 119, 2-(3-Aminophenyl)-7-[3-(cyclopropylmethoxy)-4-(difluoromethoxy)phenyl]-[1,2,4]triazolo[1,5-a]pyrimidine], on Human PDE-4d, the IC50 came out at 0.006 µM and the “activity on inhibiting PDE-4 (in words)” value is “excellent activity on inhibiting PDE-4”.

On to `FC(F)Oc1ccc(-c2ccnc3nc(-c4cccc(Br)c4)nn23)cc1OCC1CC1` [Compound 121, 2-(3-Bromophenyl)-7-[3-(cyclopropylmethoxy)-4-(difluoromethoxy)phenyl]-[1,2,4]triazolo[1,5-a]pyrimidine], for which, on Human PDE-4d, the IC50 was found to be 0.014 µM and the “activity on inhibiting PDE-4 (in words)” value is on record as “excellent activity on inhibiting PDE-4”.

As for `Cc1ccc(-c2nc3nccc(-c4ccc(OC(F)F)c(OCC5CC5)c4)n3n2)cc1` [Compound 113, 7-[3-(Cyclopropylmethoxy)-4-(difluoromethoxy)phenyl]-2-p-tolyl-[1,2,4]triazolo[1,5-a]pyrimidine], the IC50 at Human PDE-4d was 0.05 µM.
